Converted amounts (≈) assume the structure as drawn.
Key:
Enterococcus faecium [1] = assay: Bactericidal activity against vancomycin-resistant Enterococcus faecium 1119175 expressing vanB gene assessed as change in bacterial count at 32 ug/ml by time-kill assay; type: functional
[2] = Cmax in healthy human male at 200 mg, iv every 24 hrs by LC/MS/MS analysis; type: ADME, organism-based; set-up: dose 200 mg, route intravenous; conditions: in vivo
Enterococcus faecium [3] = assay: Selectivity ratio of MIC for Enterococcus faecium ATCC 51559 in presence of 4% HSA to MIC for Enterococcus faecium ATCC 51559; type: functional
Enterococcus faecalis [4] = assay: Antimicrobial activity against vancomycin-susceptible Enterococcus faecalis ATCC 29212 by broth dilution method in presence of 4% HSA; type: functional
Enterococcus faecium [5] = assay: Bactericidal activity against vancomycin-resistant Enterococcus faecium 1119175 expressing vanB gene assessed as change in bacterial count at 2 ug/ml by time-kill assay; type: functional
Enterococcus faecalis [6] = assay: Bactericidal activity against vancomycin-resistant Enterococcus faecalis 1058946 expressing vanA gene assessed as change in bacterial count at 2 ug/ml by time-kill assay; type: functional
Enterococcus faecalis [7] = assay: Selectivity ratio of MIC for Enterococcus faecalis 1058946 in presence of 4% HSA to MIC for Enterococcus faecalis 1058946; type: functional
Enterococcus faecalis [8] = assay: Antimicrobial activity against vancomycin-resistant Enterococcus faecalis 1058946 by broth dilution method in presence of 4% HSA; type: functional
Enterococcus faecium [9] = assay: Antimicrobial activity against vancomycin-resistant Enterococcus faecium 1119175 by broth dilution method; type: functional
Enterococcus faecium [10] = assay: Bactericidal activity against vancomycin-resistant Enterococcus faecium ATCC 51559 expressing vanA gene assessed as change in bacterial count at 2 ug/ml by time-kill assay; type: functional
Enterococcus faecium [11] = assay: Selectivity ratio of MIC for Enterococcus faecium 1059060 in presence of 4% HSA to MIC for Enterococcus faecium 1059060; type: functional
Enterococcus faecium [12] = assay: Antimicrobial activity against vancomycin-resistant Enterococcus faecium 1059060 by broth dilution method; type: functional
Enterococcus faecium [13] = assay: Antimicrobial activity against vancomycin-resistant Enterococcus faecium ATCC 51559 by broth dilution method; type: functional
Enterococcus faecalis [14] = assay: Bactericidal activity against vancomycin-susceptible Enterococcus faecalis ATCC 29212 assessed as change in bacterial count at 2 ug/ml by time-kill assay; type: functional
Enterococcus faecalis [15] = assay: Bactericidal activity against vancomycin-resistant Enterococcus faecalis 1058946 expressing vanA gene assessed as change in bacterial count at 32 ug/ml by time-kill assay; type: functional
Enterococcus faecium [16] = assay: Bactericidal activity against vancomycin-resistant Enterococcus faecium 1059060 expressing vanA gene assessed as change in bacterial count at 32 ug/ml by time-kill assay; type: functional
Enterococcus faecalis [17] = assay: Antimicrobial activity against vancomycin-resistant Enterococcus faecalis ATCC 51299 by broth dilution method; type: functional
Enterococcus faecalis [18] = assay: Selectivity ratio of MIC for Enterococcus faecalis ATCC 29212 in presence of 4% HSA to MIC for Enterococcus faecalis ATCC 29212; type: functional
Enterococcus faecalis [19] = assay: Antimicrobial activity against vancomycin-susceptible Enterococcus faecalis ATCC 29212 by broth dilution method; type: functional
Enterococcus faecium [20] = assay: Bactericidal activity against vancomycin-resistant Enterococcus faecium 1059060 expressing vanA gene assessed as change in bacterial count at 2 ug/ml by time-kill assay; type: functional
Enterococcus faecium [21] = assay: Antimicrobial activity against vancomycin-resistant Enterococcus faecium 1059060 by broth dilution method in presence of 4% HSA; type: functional
[22] = Free fraction in healthy human male at 200 mg, iv every 24 hrs by LC/MS/MS analysis; type: ADME, organism-based; conditions: in vivo
Enterococcus faecalis [23] = assay: Antimicrobial activity against vancomycin-resistant Enterococcus faecalis ATCC 51299 by broth dilution method in presence of 4% HSA; type: functional
Enterococcus faecium [24] = assay: Bactericidal activity against vancomycin-resistant Enterococcus faecium ATCC 51559 expressing vanA gene assessed as change in bacterial count at 32 ug/ml by time-kill assay; type: functional
Enterococcus faecium [25] = assay: Antimicrobial activity against vancomycin-resistant Enterococcus faecium ATCC 51559 by broth dilution method in presence of 4% HAS; type: functional
Enterococcus faecalis [26] = assay: Bactericidal activity against vancomycin-susceptible Enterococcus faecalis ATCC 29212 assessed as change in bacterial count at 32 ug/ml by time-kill assay; type: functional
Enterococcus faecalis [27] = assay: Bactericidal activity against vancomycin-resistant Enterococcus faecalis ATCC 51299 expressing vanB gene assessed as change in bacterial count at 2 ug/ml by time-kill assay; type: functional
Enterococcus faecium [28] = assay: Antimicrobial activity against vancomycin-resistant Enterococcus faecium 1119175 by broth dilution method in presence of 4% HSA; type: functional
Enterococcus faecalis [29] = assay: Antimicrobial activity against vancomycin-resistant Enterococcus faecalis 1058946 by broth dilution method; type: functional
Enterococcus faecalis [30] = assay: Bactericidal activity against vancomycin-resistant Enterococcus faecalis ATCC 51299 expressing vanB gene assessed as change in bacterial count at 32 ug/ml by time-kill assay; type: functional
Enterococcus faecalis [31] = assay: Selectivity ratio of MIC for Enterococcus faecalis ATCC 51299 in presence of 4% HSA to MIC for Enterococcus faecalis 51299; type: functional
Enterococcus faecium [32] = assay: Bactericidal activity against vancomycin-resistant Enterococcus faecium 1059060 expressing vanA gene assessed as change in bacterial count at 16 ug/ml by time-kill assay; type: functional
[33] = Free fraction in healthy human male at 1000 mg, iv every 12 hrs by LC/MS/MS analysis; type: ADME, organism-based; conditions: in vivo
Enterococcus faecalis [34] = assay: Bactericidal activity against vancomycin-susceptible Enterococcus faecalis ATCC 29212 assessed as change in bacterial count at 16 ug/ml by time-kill assay; type: functional
Enterococcus faecium [35] = assay: Bactericidal activity against vancomycin-resistant Enterococcus faecium 1119175 expressing vanB gene assessed as change in bacterial count at 16 ug/ml by time-kill assay; type: functional
Enterococcus faecalis [36] = assay: Bactericidal activity against vancomycin-susceptible Enterococcus faecalis ATCC 29212 assessed as change in bacterial count at 64 ug/ml by time-kill assay; type: functional
Enterococcus faecalis [37] = assay: Bactericidal activity against vancomycin-resistant Enterococcus faecalis ATCC 51299 expressing vanB gene assessed as change in bacterial count at 64 ug/ml by time-kill assay; type: functional
Enterococcus faecium [38] = assay: Bactericidal activity against vancomycin-resistant Enterococcus faecium 1059060 expressing vanA gene assessed as change in bacterial count at 64 ug/ml by time-kill assay; type: functional
Enterococcus faecalis [39] = assay: Bactericidal activity against vancomycin-resistant Enterococcus faecalis 1058946 expressing vanA gene assessed as change in bacterial count at 16 ug/ml by time-kill assay; type: functional
Enterococcus faecalis [40] = assay: Bactericidal activity against vancomycin-resistant Enterococcus faecalis 1058946 expressing vanA gene assessed as change in bacterial count at 64 ug/ml by time-kill assay; type: functional
[41] = Cmax in healthy human male at 1000 mg, iv every 12 hrs by LC/MS/MS analysis; type: ADME, organism-based; set-up: dose 1000 mg, route intravenous; conditions: in vivo
Enterococcus faecium [42] = assay: Bactericidal activity against vancomycin-resistant Enterococcus faecium ATCC 51559 expressing vanA gene assessed as change in bacterial count at 64 ug/ml by time-kill assay; type: functional
Enterococcus faecium [43] = assay: Bactericidal activity against vancomycin-resistant Enterococcus faecium 1119175 expressing vanB gene assessed as change in bacterial count at 64 ug/ml by time-kill assay; type: functional
Enterococcus faecium [44] = assay: Bactericidal activity against vancomycin-resistant Enterococcus faecium ATCC 51559 expressing vanA gene assessed as change in bacterial count at 16 ug/ml by time-kill assay; type: functional
Enterococcus faecalis [45] = assay: Bactericidal activity against vancomycin-resistant Enterococcus faecalis ATCC 51299 expressing vanB gene assessed as change in bacterial count at 16 ug/ml by time-kill assay; type: functional

`CN[C@H](CC(C)C)C(=O)N[C@H]1C(=O)N[C@@H](CC(N)=O)C(=O)N[C@H]2C(=O)N[C@H]3C(=O)N[C@H](C(=O)N[C@H](C(=O)O)c4cc(O)cc(O)c4-c4cc3ccc4O)[C@H](O[C@H]3C[C@](C)(N)[C@@H](O)[C@H](C)O3)c3ccc(c(Cl)c3)Oc3cc2cc(c3O[C@@H]2O[C@H](CO)[C@@H](O)[C@H](O)[C@H]2O[C@H]2C[C@](C)(NCc3ccc(-c4ccc(Cl)cc4)cc3)[C@@H](O)[C@H](C)O2)Oc2ccc(cc2Cl)[C@H]1O` [ORITAVANCIN] showed a log10CFU/ml (Enterococcus faecium [1]) of -1.4, a Cmax [2] of 32000 ng/mL and a Ratio (Enterococcus faecium [3]) of 2. For the same compound, the MIC (Enterococcus faecalis [4]) was 0.016 µg/mL, the log10CFU/ml (Enterococcus faecium [5]) was 1.5 and the log10CFU/ml (Enterococcus faecalis [6]) was 1.4. For the same compound, the Ratio (Enterococcus faecalis [7]) was 4, the MIC (Enterococcus faecalis [8]) was 2 µg/mL and the MIC (Enterococcus faecium [9]) was 0.016 µg/mL (≈ 0.00892 µM). The log10CFU/ml (Enterococcus faecium [10]) was 1.1, the Ratio (Enterococcus faecium [11]) was 8 and the MIC (Enterococcus faecium [12]) was 0.5 µg/mL (≈ 0.279 µM). For the same compound, the MIC (Enterococcus faecium [13]) was 0.25 µg/mL (≈ 0.139 µM), the log10CFU/ml (Enterococcus faecalis [14]) was -0.48 and the log10CFU/ml (Enterococcus faecalis [15]) was -1.2. The log10CFU/ml (Enterococcus faecium [16]) was -0.85, the MIC (Enterococcus faecalis [17]) was 0.008 µg/mL (≈ 0.00446 µM) and the Ratio (Enterococcus faecalis [18]) was 2. The MIC (Enterococcus faecalis [19]) was 0.008 µg/mL (≈ 0.00446 µM), the log10CFU/ml (Enterococcus faecium [20]) was 1 and the MIC (Enterococcus faecium [21]) was 4 µg/mL. The fraction unbound at 24 h [22] was 0.12, the MIC (Enterococcus faecalis [23]) was 0.06 µg/mL and the log10CFU/ml (Enterococcus faecium [24]) was -1.2. It also gave an MIC (Enterococcus faecium [25]) of 0.5 µg/mL, a log10CFU/ml (Enterococcus faecalis [26]) of -3.3 and a log10CFU/ml (Enterococcus faecalis [27]) of -1.2. The MIC (Enterococcus faecium [28]) was 0.01 µg/mL, the MIC (Enterococcus faecalis [29]) was 0.5 µg/mL (≈ 0.279 µM) and the log10CFU/ml (Enterococcus faecalis [30]) was -1.6. For the same compound, the Ratio (Enterococcus faecalis [31]) was 8.
For `CN[C@H](CC(C)C)C(=O)N[C@H]1C(=O)N[C@@H](CC(N)=O)C(=O)N[C@H]2C(=O)N[C@H]3C(=O)N[C@H](C(=O)N[C@H](C(=O)O)c4cc(O)cc(O)c4-c4cc3ccc4O)[C@H](O)c3ccc(c(Cl)c3)Oc3cc2cc(c3O[C@@H]2O[C@H](CO)[C@@H](O)[C@H](O)[C@H]2O[C@H]2C[C@](C)(N)[C@H](O)[C@H](C)O2)Oc2ccc(cc2Cl)[C@H]1O` [VANCOMYCIN], the log10CFU/ml (Enterococcus faecium [32]) was 2.3, the fraction unbound at 12 h [33] was 0.54 and the log10CFU/ml (Enterococcus faecalis [34]) was -1.7. For the same compound, the MIC (Enterococcus faecalis [4]) was 2 µg/mL, the log10CFU/ml (Enterococcus faecium [35]) was 1.1 and the log10CFU/ml (Enterococcus faecalis [36]) was -0.76. It also gave a log10CFU/ml (Enterococcus faecalis [37]) of 0.85, a log10CFU/ml (Enterococcus faecium [38]) of 2.2 and an MIC (Enterococcus faecalis [8]) greater than 128 µg/mL. For the same compound, the MIC (Enterococcus faecium [9]) was greater than 128 µg/mL, the MIC (Enterococcus faecium [12]) was greater than 128 µg/mL and the MIC (Enterococcus faecium [13]) was greater than 128 µg/mL. For the same compound, the MIC (Enterococcus faecalis [17]) was 128 µg/mL (≈ 88.3 µM), the log10CFU/ml (Enterococcus faecalis [39]) was 2.5 and the MIC (Enterococcus faecalis [19]) was 2 µg/mL (≈ 1.38 µM). For the same compound, the log10CFU/ml (Enterococcus faecalis [40]) was 2.3, the Cmax [41] was 64000 ng/mL and the MIC (Enterococcus faecium [21]) was greater than 128 µg/mL. For the same compound, the MIC (Enterococcus faecalis [23]) was 128 µg/mL, the log10CFU/ml (Enterococcus faecium [42]) was 2.2 and the log10CFU/ml (Enterococcus faecium [43]) was 1.2. It also gave an MIC (Enterococcus faecium [25]) greater than 128 µg/mL, a log10CFU/ml (Enterococcus faecium [44]) of 2.6 and an MIC (Enterococcus faecium [28]) greater than 128 µg/mL. The MIC (Enterococcus faecalis [29]) was greater than 128 µg/mL and the log10CFU/ml (Enterococcus faecalis [45]) was 2.3.

From ChEMBL document CHEMBL1649467, “Impact of human serum albumin on oritavancin in vitro activity against enterococci” (Antimicrob Agents Chemother, 2009)
